Source: patent publication US10010539B2, “Pyrazole, triazole and tetrazole orexin receptor antagonists” (MERCK SHARP & DOHME CORP., priority 2014, dated 2018)

Experiments:
[1] = biological target: hOXIR (orexin-1 receptor) (Homo sapiens, UniProt O43613); assay: FLIPR Ca2+ Flux Assay, orexin-1 receptor (hOXIR FLIPR); assay type: cell-based; details: CHO cells expressing the orexin-1 receptor (method text: rat; table head: hOXIR); agonist 70 pM Ala-6,12 human orexin-A
Experimental: (§1) The utility of the compounds in accordance with the present invention as orexin receptor OX1R and/or OX2R antagonists may be readily determined without undue experimentation by methodology well known in the art, including the “FLIPR Ca^2+ Flux Assay” (Okumura et al., Biochem. Biophys. Res. Comm. 280:976-981, 2001). In a typical experiment the OX1 and OX2 receptor antagonistic activity of the compounds of the present invention was determined in accordance with the following experimental method. For intracellular calcium measurements, Chinese hamster ovary (CHO) cells expressing the rat orexin-1 receptor or the human orexin-2 receptor, are grown in Iscove's modified DMEM containing 2 mM L-glutamine, […], 1% hypoxanthine-thymidine supplement, 100 U/ml penicillin, 100 μg/ml streptomycin and 10% heat-inactivated fetal calf serum (FCS). The cells are seeded at 20,000 cells/well into Becton-Dickinson black 384-well clear bottom sterile plates coated with poly-D-lysine. All reagents were from GIBCO-Invitrogen Corp. The seeded plates are incubated overnight at 37° C. and 5% CO2. Ala-6,12 human orexin-A as the agonist is prepared as a 1 mM stock solution in 1% bovine serum albumin (BSA) and diluted in assay buffer (HBSS containing 20 mM HEPES, 0.1% BSA and 2.5 mM probenecid, pH7.4) for use in the assay at a final concentration of 70 pM. Test compounds are prepared as 10 mM stock solution in DMSO, then diluted in 384-well plates, first in DMSO, then assay buffer. On the day of the assay, cells are washed 3 times with 100 μl assay buffer and then incubated for 60 min (37° C., 5% CO2) in 60 μl assay buffer containing 1 μM Fluo-4AM ester, 0.02% pluronic acid, and 1% BSA. The dye loading solution is then aspirated and cells are washed 3 times with 100 μl assay buffer. 30 μl of that same buffer is left in each well. Within the Fluorescent Imaging Plate Reader (FLIPR, Molecular Devices), test compounds are added to the plate in a volume of 25 μl, incubated for 5 min and finally 25 μl of agonist is added. Fluorescence is measured for each well at 1 second intervals for 5 minutes and the height of each fluorescence peak is compared to the height of the fluorescence peak induced by 70 pM Ala-6,12 orexin-A with buffer in place of antagonist. For each antagonist, IC50 value (the concentration of compound needed to inhibit 50% of the agonist response) is determined. Alternatively, compound potency can be assessed by a radioligand binding assay (described in Bergman et. al. Bioorg. Med. Chem. Lett. 2008, 18, 1425-1430) in which the inhibition constant (Ki) is determined in membranes prepared from CHO cells expressing either the OX1 or OX2 receptor. The intrinsic orexin receptor antagonist activity of a compound which may be used in the present invention may be determined by these assays.

[2] = biological target: human orexin-2 receptor (Homo sapiens (Human), UniProt O43614); assay: FLIPR Ca2+ Flux Assay, orexin-2 receptor (hOX2R FLIPR); assay type: cell-based; details: CHO cells expressing the human orexin-2 receptor; agonist 70 pM Ala-6,12 human orexin-A
Experimental: as §1

Sequence of human orexin-2 receptor (O43614 whole entry): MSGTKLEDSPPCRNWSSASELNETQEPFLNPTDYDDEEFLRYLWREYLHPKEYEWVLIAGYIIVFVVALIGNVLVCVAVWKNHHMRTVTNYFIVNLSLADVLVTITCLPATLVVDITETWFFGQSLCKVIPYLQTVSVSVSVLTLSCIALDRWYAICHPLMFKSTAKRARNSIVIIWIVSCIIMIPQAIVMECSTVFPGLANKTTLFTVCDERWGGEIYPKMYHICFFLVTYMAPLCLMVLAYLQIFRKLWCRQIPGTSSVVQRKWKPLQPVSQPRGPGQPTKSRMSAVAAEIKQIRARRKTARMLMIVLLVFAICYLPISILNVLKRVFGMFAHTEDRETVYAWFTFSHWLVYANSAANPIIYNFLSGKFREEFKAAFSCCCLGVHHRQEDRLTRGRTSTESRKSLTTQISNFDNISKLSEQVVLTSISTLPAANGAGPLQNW

In the case of `C[C@@H]1CC[C@@H](n2ncc(C(C)(C)O)n2)CN1C(=O)c1nccnc1-n1cccn1` [Example 43, 2-{2-[(3R,6R)-6-methyl-1-{[3-(1H-pyrazol-1-yl)pyrazin-2-yl]carbonyl}piperidin-3-yl]-2H-1,2,3-triazol-4-yl}propan-2-ol], the IC50 [1] is reported as > 10 µM and the IC50 [2] is reported as 0.109 µM.

For `C[C@@H]1CC[C@@H](n2ncc(C(C)(C)O)n2)CN1C(=O)c1ccccc1[C@@H]1CC1(F)F` [Example 22, 2-{2-[(3R,6R)-1-({2-[(1S)-2,2-difluorocyclopropyl]phenyl}carbonyl)-6-methylpiperidin-3-yl]-2H-1,2,3-triazol-4-yl}propan-2-ol], the IC50 [1] was 0.733 µM and the IC50 [2] was 0.0085 µM.

Compound `C[C@@H]1CC[C@@H](n2ncc(C(C)(C)O)n2)CN1C(=O)c1ccccc1SC(F)(F)F` [Example 11, 2-{2-[(3R,6R)-6-Methyl-1-({2-[(trifluoromethyl)sulfanyl]pheny}carbonyl)piperidin-3-yl]-2H-1,2,3-triazol-4-yl}propan-2-ol] has an IC50 [1] of 2.55 µM and an IC50 [2] of 0.02 µM.

In the case of `C[C@@H]1CC[C@@H](n2ncc([C@H](O)C(F)(F)F)n2)CN1C(=O)c1ccccc1-n1nccn1` [Example 26, (2-(2H-1,2,3-triazol-2-yl)phenyl) ((2R,5R)-2-methyl-5-(4-((S)-2,2,2-trifluoro-1-hydroxyethyl)-2H-1,2,3-triazol-2-yl)piperidin-1-yl)methanone], the IC50 [1] is reported as > 10 µM and the IC50 [2] is reported as 0.0867 µM.

With `C[C@@H]1CC[C@@H](n2cc(C(C)(C)O)cn2)CN1C(=O)c1ccccc1OC(F)(F)F` [Example 83, 2-{1-[(3R,6R)-6-Methyl-1-{[2-(trifluoromethoxy)phenyl]carbonyl}piperidin-3-yl]-1H-pyrazol-4-yl}propan-2-ol] the IC50 [1] was > 10 µM and the IC50 [2] was 0.0314 µM.

In the case of `CCCc1ncccc1C(=O)N1C[C@H](n2ncc(C(C)(C)O)n2)CC[C@H]1C` [Example 3, ((2R,5R)-5-(4-(2-Hydroxypropan-2-yl)-2H-1,2,3-triazol-2-yl)-2-methylpiperidin-1-yl)(2-propylpyridin-3-yl)methanone], the IC50 [1] is reported as > 10 µM and the IC50 [2] is reported as 1.06 µM.

`C[C@@H]1CC[C@@H](n2cc(C(C)(C)O)cn2)CN1C(=O)c1ccccc1[C@@H]1CC1(F)F` [Example 85, 2-{1-[(3R,6R)-1-({2-[(1S)-2,2-Difluorocyclopropyl]phenyl}carbonyl)-6-methylpiperidin-3-yl]-1H-pyrazol-4-yl}propan-2-ol] gave an IC50 [1] of 2.64 µM and an IC50 [2] of 0.0094 µM.

With `Cc1nn([C@@H]2CC[C@@H](C)N(C(=O)c3cccnc3OCC(F)F)C2)nc1C(C)(C)O` [Example 64, 2-{2-[(3R,6R)-1-{[2-(2,2-Difluoroethoxy)pyridin-3-yl]carbonyl}-6-methylpiperidin-3-yl]-5-methyl-2H-1,2,3-triazol-4-yl}propan-2-ol] the IC50 [1] was 2.99 µM and the IC50 [2] was 0.0088 µM.

In the case of `COc1ccc(C(=O)N2C[C@H](n3ncc(C(C)(C)O)n3)CC[C@H]2C)c(-n2nccn2)n1` [Example 45, 2-{2-[(3R,6R)-1-{[6-methoxy-2-(2H-1,2,3-triazol-2-yl)pyridin-3-yl]carbonyl}-6-methylpiperidin-3-yl]-2H-1,2,3-triazol-4-yl}propan-2-ol], the IC50 [1] is reported as > 10 µM and the IC50 [2] is reported as 0.0514 µM.

`Cc1cnn(-c2ncccc2C(=O)N2C[C@H](n3ncc(C(C)(C)O)n3)CC[C@H]2C)c1` [Example 10, ((2R,5R)-5-(4-(2-Hydroxypropan-2-yl)-2H-1,2,3-triazol-2-yl)-2-methylpiperidin-1-yl)(2-(4-methyl-1H-pyrazol-1-yl)pyridin-3-yl)methanone] was tested, and the IC50 [1] was > 10 µM and the IC50 [2] was 0.026 µM.

In the case of `C[C@@H]1CC[C@@H](n2ncc(C(C)(C)O)n2)CN1C(=O)c1nccnc1-c1ccccn1` [Example 42, 2-(2-{(3R,6R)-6-methyl-1-[(3-pyridin-2-ylpyrazin-2-yl)carbonyl]piperidin-3-yl}-2H-1,2,3-triazol-4-yl)propan-2-ol], the IC50 [1] is reported as > 10 µM and the IC50 [2] is reported as 0.622 µM.

In the case of `C[C@@H]1CC[C@@H](n2ncc(C(C)(C)O)n2)CN1C(=O)c1ccccc1N1CCCC1` [Example 49, 2-(2-{(3R,6R)-6-methyl-1-[(2-pyrrolidin-1-ylphenyl)carbonyl]piperidin-3-yl}-2H-1,2,3-triazol-4-yl)propan-2-ol], the IC50 [1] is reported as 2.83 µM and the IC50 [2] is reported as 0.0291 µM.

With `CC(C)Oc1ccccc1C(=O)N1C[C@H](n2ncc(C(C)(C)O)n2)CC[C@H]1C` [Example 17, ((2R,5R)-5-(4-(2-Hydroxypropan-2-yl)-2H-1,2,3-triazol-2-yl)-2-methylpiperidin-1-yl)(2-isopropoxyphenyl)methanone] the IC50 [1] was 3.68 µM and the IC50 [2] was 0.0161 µM.

For `C[C@@H]1CC[C@@H](n2ncc(C(C)(C)O)n2)CN1C(=O)c1cccc2ccnn12` [Example 57, 2-{2-[(3R,6R)-6-Methyl-1-(pyrazolo[1,5-a]pyridin-7-ylcarbonyl)piperidin-3-yl]-2H-1,2,3-triazol-4-yl}propan-2-ol], the IC50 [1] was > 10 µM and the IC50 [2] was 0.489 µM.

With `C[C@@H]1CC[C@@H](n2ncc(C(C)(C)O)n2)CN1C(=O)c1cccnc1OCC(F)F` [Example 13, (2-(2,2-Difluoroethoxy)pyridin-3-yl)((2R,5R)-5-(4-(2-hydroxypropan-2-yl)-2H-1,2,3-triazol-2-yl)-2-methylpiperidin-1-yl)methanone] the IC50 [1] was > 10 µM and the IC50 [2] was 0.0143 µM.

`COC(=O)c1cnn([C@@H]2CC[C@@H](C)N(C(=O)c3ccccc3-n3nccn3)C2)n1` [Example 24, Methyl 2-((3R,6R)-1-(2-(2H-1,2,3-triazol-2-yl)benzoyl)-6-methylpiperidin-3-yl)-2H-1,2,3-triazole-4-carboxylate] was tested, and the IC50 [1] was > 10 µM and the IC50 [2] was 0.512 µM.

With `COCCc1ccccc1C(=O)N1C[C@H](n2ncc(C(C)(C)O)n2)CC[C@H]1C` [Example 44, 2-{2-[(3R,6R)-1-{[2-(2-methoxyethyl)phenyl]carbonyl}-6-methylpiperidin-3-yl]-2H-1,2,3-triazol-4-yl}propan-2-ol] the IC50 [1] was > 10 µM and the IC50 [2] was 0.897 µM.

`C[C@@H]1CC[C@@H](n2ncc(C(C)(C)O)n2)CN1C(=O)c1ccccc1-n1ncnn1` [Example 34, 2-{2-[(3R,6R)-6-methyl-1-{[2-(2H-tetrazol-2-yl)phenyl]carbonyl}piperidin-3-yl]-2H-1,2,3-triazol-4-yl}propan-2-ol] was tested, and the IC50 [1] was > 10 µM and the IC50 [2] was 0.0368 µM.

For `CCOc1ncccc1C(=O)N1C[C@H](n2cc(C(C)(C)O)cn2)CC[C@H]1C` [Example 89, 2-(1-{(3R,6R)-1-[(2-Ethoxypyridin-3-yl)carbonyl]-6-methylpiperidin-3-yl}-1H-pyrazol-4-yl)propan-2-ol], the IC50 [1] was > 10 µM and the IC50 [2] was 0.283 µM.

`Cc1nc(-c2cc(F)ccc2C(=O)N2C[C@H](n3ncc(C(C)(C)O)n3)CC[C@H]2C)no1` [Example 40, 2-{2-[(3R,6R)-1-{[4-fluoro-2-(5-methyl-1,2,4-oxadiazol-3-yl)phenyl]carbonyl}-6-methylpiperidin-3-yl]-2H-1,2,3-triazol-4-yl}propan-2-ol] was tested, and the IC50 [1] was > 10 µM and the IC50 [2] was 0.0867 µM.

For `C[C@@H]1CC[C@@H](n2cc([C@@H](O)C(F)(F)F)cn2)CN1C(=O)c1ccccc1-n1nccn1` [Example 102, (1R)-2,2,2-Trifluoro-1-{1-[(3R,6R)-6-methyl-1-{[2-(2H-1,2,3-triazol-2-yl)phenyl]carbonyl}piperidin-3-yl]-1H-pyrazol-4-yl}ethanol], the IC50 [1] was > 10 µM and the IC50 [2] was 0.124 µM.
